Here are results for one compound from US11572590B2, “Methods for evaluating tumor cell spheroids using 3D microfluidic cell culture device” (Dana-Farber Cancer Institute, Inc., priority 2017, dated 2023).

Like-named read-outs stand apart in the source and are kept apart here.

Assay [1] addresses T1, off-target kinases (Homo sapiens, UniProt P52564).
T1 sequence (P52564 1-334): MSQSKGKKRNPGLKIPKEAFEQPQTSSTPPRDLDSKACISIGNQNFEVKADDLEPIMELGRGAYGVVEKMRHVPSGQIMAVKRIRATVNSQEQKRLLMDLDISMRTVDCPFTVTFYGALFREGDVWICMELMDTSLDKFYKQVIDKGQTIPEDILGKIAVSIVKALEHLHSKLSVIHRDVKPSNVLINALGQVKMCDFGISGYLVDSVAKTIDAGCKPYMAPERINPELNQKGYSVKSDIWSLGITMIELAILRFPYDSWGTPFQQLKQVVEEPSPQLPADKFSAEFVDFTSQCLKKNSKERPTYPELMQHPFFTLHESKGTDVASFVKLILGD
In words: SelectScreen Kinase Profiling, single point inhibition and IC50 for off-target kinases. The class given is biochemical.

In assay [2] the target is T2, off-target kinases (Homo sapiens, UniProt Q13188).
T2 sequence (Q13188 1-491): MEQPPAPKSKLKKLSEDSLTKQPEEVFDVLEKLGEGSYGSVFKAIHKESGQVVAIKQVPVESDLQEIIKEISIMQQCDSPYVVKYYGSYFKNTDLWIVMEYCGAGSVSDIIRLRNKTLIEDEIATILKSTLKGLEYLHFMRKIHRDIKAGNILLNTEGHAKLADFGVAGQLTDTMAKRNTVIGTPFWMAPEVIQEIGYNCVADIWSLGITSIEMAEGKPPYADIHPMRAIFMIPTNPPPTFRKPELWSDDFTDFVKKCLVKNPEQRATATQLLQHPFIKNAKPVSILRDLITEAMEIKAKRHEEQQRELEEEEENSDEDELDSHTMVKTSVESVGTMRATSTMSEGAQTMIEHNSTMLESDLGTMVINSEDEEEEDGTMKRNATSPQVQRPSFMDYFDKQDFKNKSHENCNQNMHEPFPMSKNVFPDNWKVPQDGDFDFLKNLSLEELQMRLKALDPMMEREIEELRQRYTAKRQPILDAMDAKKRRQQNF
The description is as above. The following applies: STK3 (MST2), ZLYTE, ATP Km app. The class given is biochemical.

As to `N#Cc1cc(-c2ncnc(Nc3ccc(N4CCN(C5COC5)CC4)cc3)n2)ccc1OC1CCOCC1` [Compound 1, 5-(4-((4-(4-(oxetan-3-yl)piperazin-1-yl)phenyl)amino)-1,3,5-triazin-2-yl)-2-((tetrahydro-2H-pyran-4-yl)oxy)benzonitrile], the inhibition (as a rule, the relative decrease from the control value, in per cent) at off-target kinases [1] (MAP2K6 (MKK6), LanthaScreen Binding, read-out: % Inhibition 2) is 4%; on off-target kinases [1] (MAP2K6 (MKK6), LanthaScreen Binding, read-out: % Inhibition Avg) it was 1%; at off-target kinases [1] (MAP2K6 (MKK6), ZLYTE, ATP 100, read-out: % Inhibition 1), 0%; at off-target kinases [1] (MAP2K6 (MKK6), ZLYTE, ATP 100, read-out: % Inhibition 2), 19%; at off-target kinases [1] (MAP2K6 (MKK6), ZLYTE, ATP 100, read-out: % Inhibition Avg) it was 9%; at off-target kinases [1] (read-out: % Inhibition 1), -2%. Further, the inhibition is 5% on off-target kinases [2] (read-out: % Inhibition 1), 6% at off-target kinases [2] (read-out: % Inhibition 2) and 5% at off-target kinases [2] (read-out: % Inhibition Avg).
